The text below walks through data of patent US10610520B2, “Heterocyclic compound” (Takeda Pharmaceutical Company Limited, priority 2016, dated 2020).

Usually inhibition stands for the change of the read-out against control, counted positive when it falls.

The target in one assay is T1, His-hMAGL (recombinant polyhistidine tagged human MAGL protein) (Homo sapiens, UniProt Q99685).
T1 construct: made in house; host or cells: E. coli BL21(DE3)
T1 sequence (Q99685 1-303): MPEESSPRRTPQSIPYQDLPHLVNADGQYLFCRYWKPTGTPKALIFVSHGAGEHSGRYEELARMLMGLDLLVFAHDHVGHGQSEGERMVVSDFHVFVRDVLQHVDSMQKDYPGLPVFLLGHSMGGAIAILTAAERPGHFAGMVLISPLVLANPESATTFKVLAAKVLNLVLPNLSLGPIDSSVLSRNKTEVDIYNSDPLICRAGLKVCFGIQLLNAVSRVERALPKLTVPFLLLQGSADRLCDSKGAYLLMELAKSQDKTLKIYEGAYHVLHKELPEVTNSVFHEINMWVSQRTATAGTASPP
Briefly: Measurement of MAGL inhibitory activity (arachidonic acid production from 2-arachidonylglycerol, RapidFire-mass spectrometry). As to conditions: MAGL inhibitory rate, test compound 10 μM, 60 min preincubation, 2-arachidonylglycerol substrate. Type of assay: biochemical. A digest of the protocol: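 Arachidonic acid formed was quantified by online solid-phase extraction and triple-quadrupole MS in negative SRM mode against a d8 internal standard. Reaction: recombinant His-hMAGL (7.5 ng/mL, pH 7.5 Tris buffer with Triton X-100 and BSA) plus 2-AG (5 μL of 150 μM stock) for 10 min at room temperature, quenched with 2% formic acid. Percent inhibition corrected for enzyme-free background.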
`COc1cc(F)c2c(Cl)c(C(=O)N3CC4(COC(=O)N4)C3)sc2c1` [Example 284, 2-((3-chloro-4-fluoro-6-methoxy-1-benzothiophen-2-yl)carbonyl)-7-oxa-2,5-diazaspiro[3.4]octan-6-one]: the inhibition at 10 µM came out at 101%. The same measure, in the same setting: to `O=C1CCC2(CN(C(=O)c3ccc(-c4ccc(C(F)(F)F)c(Cl)c4)cc3)C2)N1` [Example 44, 2-((3′-chloro-4′-(trifluoromethyl)biphenyl-4-yl)carbonyl)-2,5-diazaspiro[3.4]octan-6-one] belongs 100%. On the same count and under the same terms, to `COc1ccc(F)c(-c2ccc(C(=O)N3CC4(CCC(=O)N4)C3)cc2)c1F` [Example 78, 2-((2′,6′-difluoro-3′-methoxybiphenyl-4-yl)carbonyl)-2,5-diazaspiro[3.4]octan-6-one] belongs 85%; to `O=C1CCC2(CN(C(=O)c3sc4cc(-c5ccc(F)cc5Cl)ccc4c3Cl)C2)N1` [Example 224, 2-((3-chloro-6-(2-chloro-4-fluorophenyl)-1-benzothiophen-2-yl)carbonyl)-2,5-diazaspiro[3.4]octan-6-one], 100%. Still for that read-out and setting: then `O=C1CCC2(CN(C(=O)c3sc4cc(-c5cccc(C6CC6)c5)ccc4c3Cl)C2)N1` [Example 218, 2-((3-chloro-6-(3-cyclopropylphenyl)-1-benzothiophen-2-yl)carbonyl)-2,5-diazaspiro[3.4]octan-6-one], with 100%; and `O=C1CCC2(CN(C(=O)c3ccc(-c4cccc(OC(F)(F)F)c4)cc3)C2)N1` [Example 60, 2-((3′-(trifluoromethoxy)biphenyl-4-yl)carbonyl)-2,5-diazaspiro[3.4]octan-6-one], with 98%; and `O=C1CCC2(CN(C(=O)N3CCC(Cc4cc(C(F)(F)F)cc(C(F)(F)F)c4)CC3)C2)N1` [Example 108, 2-((4-(3,5-bis(trifluoromethyl)benzyl)piperidin-1-yl)carbonyl)-2,5-diazaspiro[3.4]octan-6-one], with 104%.

Consider `O=C1CCC2(CN(C(=O)c3sc4cc(-c5ccccc5Cl)ccc4c3Cl)C2)N1` [Example 192, 2-((3-chloro-6-(2-chlorophenyl)-1-benzothiophen-2-yl)carbonyl)-2,5-diazaspiro[3.4]octan-6-one], for which the inhibition at 10 µM worked out at 100%. `O=C1CCC2(CN(C(=O)c3ccc(-c4ccccc4)cc3)C2)N1` [Example 12, 2-(biphenyl-4-ylcarbonyl)-2,5-diazaspiro[3.4]octan-6-one]: the inhibition at 10 µM came out at 92%. Turning to `Cc1cccc(-c2ccc(C(=O)N3CC4(CCC(=O)N4)C3)cc2)c1C` [Example 89, 2-((2′,3′-dimethylbiphenyl-4-yl)carbonyl)-2,5-diazaspiro[3.4]octan-6-one], the inhibition at 10 µM turned out to be 96%.

On to `O=C1CCC2(CN(C(=O)c3sc4cc(-c5ccc(Cl)cc5F)ccc4c3Cl)C2)N1` [Example 225, 2-((3-chloro-6-(4-chloro-2-fluorophenyl)-1-benzothiophen-2-yl)carbonyl)-2,5-diazaspiro[3.4]octan-6-one], for which the inhibition at 10 µM was found to be 99%. Still for that read-out and setting: to `O=C1CCC2(CN(C(=O)N3CCC(C(F)(F)c4ccc(Cl)cc4Cl)CC3)C2)N1` [Example 244, 2-((4-((2,4-dichlorophenyl)(difluoro)methyl)piperidin-1-yl)carbonyl)-2,5-diazaspiro[3.4]octan-6-one] belongs 100%. `O=C1CCC2(CN(C(=O)c3ccc(-c4ccc(Cl)c(C(F)(F)F)c4)cc3)C2)N1` [Example 52, 2-((4′-chloro-3′-(trifluoromethyl)biphenyl-4-yl)carbonyl)-2,5-diazaspiro[3.4]octan-6-one]: the inhibition at 10 µM is 99%. Same read-out and setting: then `O=C1CCC2(CN(C(=O)c3sc4cc(OC(F)(F)F)ccc4c3Cl)C2)N1` [Example 176, 2-((3-chloro-6-(trifluoromethoxy)-1-benzothiophen-2-yl)carbonyl)-2,5-diazaspiro[3.4]octan-6-one], with 99%; and `O=C1CCC2(CN(C(=O)[C@H]3C[C@@H](COc4ccc(F)cc4Cl)C3)C2)N1` [Example 25, 2-((cis-3-((2-chloro-4-fluorophenoxy)methyl)cyclobutyl)carbonyl)-2,5-diazaspiro[3.4]octan-6-one], with 91%; and `O=C1CCC2(CN(C(=O)c3cccc(C(F)(F)c4ccccc4)c3)C2)N1` [Example 27, 2-(3-(difluoro(phenyl)methyl)benzoyl)-2,5-diazaspiro[3.4]octan-6-one], with 94%.

`O=C1CCC2(CN(C(=O)c3sc4cc(-c5ccc(F)c(Cl)c5)ccc4c3Cl)C2)N1` [Example 226, 2-((3-chloro-6-(3-chloro-4-fluorophenyl)-1-benzothiophen-2-yl)carbonyl)-2,5-diazaspiro[3.4]octan-6-one]: the inhibition at 10 µM was 99%.

Turning to `O=C1CCC2(CN(C(=O)c3ccc(-c4ccccc4)c(Cl)c3)C2)N1` [Example 119, 2-((2-chlorobiphenyl-4-yl)carbonyl)-2,5-diazaspiro[3.4]octan-6-one], the inhibition at 10 µM worked out at 90%. Still for that read-out and setting: to `Cc1cc(C(F)(F)F)ccc1-c1ccc(C(=O)N2CC3(CCC(=O)N3)C2)cc1` [Example 92, 2-((2′-methyl-4′-(trifluoromethyl)biphenyl-4-yl)carbonyl)-2,5-diazaspiro[3.4]octan-6-one] belongs 96%; to `Cc1cc(F)cc(-c2ccc3c(Cl)c(C(=O)N4CC5(CCC(=O)N5)C4)sc3c2)c1` [Example 211, 2-((3-chloro-6-(3-fluoro-5-methylphenyl)-1-benzothiophen-2-yl)carbonyl)-2,5-diazaspiro[3.4]octan-6-one], 99%; to `O=C1CCC2(CN(C(=O)c3sc4cc(-c5c(F)cccc5F)ccc4c3Cl)C2)N1` [Example 213, 2-((3-chloro-6-(2,6-difluorophenyl)-1-benzothiophen-2-yl)carbonyl)-2,5-diazaspiro[3.4]octan-6-one], 100%. On the same count and under the same terms, to `O=C1CCC2(CN(C(=O)c3sc4ccc(Cl)cc4c3-c3ccccc3)C2)N1` [Example 143, 2-((5-chloro-3-phenyl-1-benzothiophen-2-yl)carbonyl)-2,5-diazaspiro[3.4]octan-6-one] belongs 100%. The same measure, in the same setting: then `O=C1CCC2(CN(C(=O)c3ccc(OCc4ccccc4)cc3)C2)N1` [Example 6, 2-(4-(benzyloxy)benzoyl)-2,5-diazaspiro[3.4]octan-6-one], with 87%; and `O=C1NC2(CO1)CN(C(=O)c1sc3cc(F)cc(OCC4CC4)c3c1Cl)C2` [Example 363, 2-((3-chloro-4-(cyclopropylmethoxy)-6-fluoro-1-benzothiophen-2-yl)carbonyl)-7-oxa-2,5-diazaspiro[3.4]octan-6-one], with 99%; and `Cc1c(F)ccc(F)c1-c1ccc(C(=O)N2CC3(CCC(=O)N3)C2)cc1` [Example 91, 2-((3′,6′-difluoro-2′-methylbiphenyl-4-yl)carbonyl)-2,5-diazaspiro[3.4]octan-6-one], with 90%.

Turning to `Cc1cc(F)ccc1-c1ccc(OCC2CN(C(=O)N3CC4(CCC(=O)N4)C3)C2)c(F)c1` [Example 23, 2-((3-(((3,4′-difluoro-2′-methylbiphenyl-4-yl)oxy)methyl)azetidin-1-yl)carbonyl)-2,5-diazaspiro[3.4]octan-6-one], the inhibition at 10 µM was found to be 102%.

With `O=C1NC2(CO1)CN(C(=O)c1sc3cc(OC(F)F)cc(C(F)(F)F)c3c1Cl)C2` [Example 292, 2-((3-chloro-6-(difluoromethoxy)-4-(trifluoromethyl)-1-benzothiophen-2-yl)carbonyl)-7-oxa-2,5-diazaspiro[3.4]octan-6-one], the inhibition at 10 µM amounted to 100%. For `O=C1NC2(CO1)CN(C(=O)c1sc3ccc(OC(F)(F)F)cc3c1C(F)F)C2` [Example 300, 2-((3-(difluoromethyl)-5-(trifluoromethoxy)-1-benzothiophen-2-yl)carbonyl)-7-oxa-2,5-diazaspiro[3.4]octan-6-one], the inhibition at 10 µM was 101%. For `Cc1c(C(=O)N2CC3(COC(=O)N3)C2)sc2c(F)c(OC(F)(F)F)ccc12` [Example 347, 2-((7-fluoro-3-methyl-6-(trifluoromethoxy)-1-benzothiophen-2-yl)carbonyl)-7-oxa-2,5-diazaspiro[3.4]octan-6-one], the inhibition at 10 µM was determined as 100%.

Take `Cc1cc(C)c(-c2ccc(C(=O)N3CC4(CCC(=O)N4)C3)cc2)c(C)c1` [Example 93, 2-((2′,4′,6′-trimethylbiphenyl-4-yl)carbonyl)-2,5-diazaspiro[3.4]octan-6-one]: the inhibition at 10 µM amounted to 82%. Same read-out and setting: then `O=C1CCC2(CN(C(=O)c3ccc4c(ccn4-c4ccc(C(F)(F)F)cn4)c3)C2)N1` [Example 14, 2-((1-(5-(trifluoromethyl)pyridin-2-yl)-1H-indol-5-yl)carbonyl)-2,5-diazaspiro[3.4]octan-6-one], with 96%; and `O=C1CCC2(CN(C(=O)c3sc4cc(Br)ccc4c3Cl)C2)N1` [Example 35, 2-((6-bromo-3-chloro-1-benzothiophen-2-yl)carbonyl)-2,5-diazaspiro[3.4]octan-6-one], with 99%.

The assay is the same for the next values; noted with them: MAGL inhibitory rate, test compound 10 μM, 60 min preincubation, 2-arachidonylglycerol substrate; 10 µM.
Consider `O=C1NC2(CCN(C(=O)c3sc4cc(OC(F)(F)F)ccc4c3Cl)C2)CO1` (stereo not drawn) [Example 323, 7-((3-chloro-6-(trifluoromethoxy)-1-benzothiophen-2-yl)carbonyl)-3-oxa-1,7-diazaspiro[4.4]nonan-2-one], for which the “% inhibition (10 μM)” value worked out at 101%.
